The structures appear in SMILES notation.

From article PMC5007466, “VCP recruitment to mitochondria causes mitophagy impairment and neurodegeneration in models of Huntington's disease” (Nature Communications, 2016) come the findings set out here.

The test system of assay [1] is HD patient-iPS cell derived neurons. The assay is described as follows: Mitochondrial membrane potential (TMRM), iPS neurons. Format: cell-based, human. To be noted: 1 μM per day for 5 days. As to the method: iPS cells from a normal subject and a HD patient (carrying 41 CAG repeats) were differentiated into neurons using the protocol from our previous studies. Briefly, iPS cells were plated onto 6-well plates precoated with 2.5% Matrigel and allowed to reach 90% confluence in feeder-free medium. For the first 10 days, cells were treated with SB431542 (10 μM; Tocris Bioscience) and Noggin (100 ng/ml) in Neural Media (NM) containing Neurobasal and DMEM (1:1), B27 supplement minus vitamin A (50 × , Invitrogen), N2 supplement (100 × , Invitrogen), GlutaMax (Invitrogen, 100 × ), FGF2 ([…]) and EGF ([…]), 100 units per ml penicillin and 100 μg ml^−1 streptomycin). […]
To determine mitochondrial mass in cultures, cells were stained with antibodies against Tom20 or stained with Mitotracker green. The fluorescent density of Tom20 (1:500) or mitotracker green was quantitated using NIH Image J software. […] The images were visualized by microscope and quantitation of the density of red fluorescence was carried out using NIH ImageJ software. For immunocytochemistry study, at least 100 cells per group were counted and quantitated by an observer blind to experimental conditions.

For assay [2], the system named is Cathepsin B in HdhQ111 mouse striatal cells. In words: Lysosomal Cathepsin B activity. Format: cell-based. The conditions noted are these: 3 uM/day for 3 days. As to the method:
Figure 5 Treatment of HV-3 reduces excessive mitophagy in HD cell cultures and HD mouse brains. (a) HdhQ7 and HdhQ111 cells were treated with control siRNA (con) or VCP siRNA (siVCP) for 48 h. Mitochondria were isolated and LC3 mitochondrial levels were determined by WB. Representative blots are from three independent experiments. The quantitation of LC3 II levels on mitochondria is provided on the right. VADC was used as a loading control. (b) Flag-VCP and GFP-LC3B were co-transfected into wild-type striatal cells. Mitochondria were isolated after 36 h of transfection. The GFP-LC3B levels on mitochondria were examined by WB. VDAC was used as a loading control. Representative blots are from three independent experiments. Histogram: quantitation of GFP-LC3B mitochondrial protein level. HdhQ7 and HdhQ111 cells were treated with control peptide TAT or peptide HV-3 (3 uM/day for 3 days). (c) HdhQ111 cells were transfected with GFP-LC3B for 24 h. The number of GFP-LC3B puncta was quantitated and shown in the histogram. Scale bars: 10 μm. (d) Enzyme activity of lysosomal Cathepsin B was measured using a Cathepsin B assay kit. […] (e) Mitochondrial mass was measured by the fluorescent density of Mitotracker green. […] Histogram: the number of mitophagosomes per 100 μm^2 was counted and quantitated. Fifteen random areas in the striatum of each animal were analyzed. […]

The test system of another assay is YAC128 mice. The assay is described as follows: VCP mitochondrial level, YAC128 mouse striatum. The format is in vivo. The conditions noted are these: YAC128, 3 mg kg^−1 per day from 3 to 6 months versus TAT, n=6. As to the method:
Cells were washed with cold PBS and incubated on ice for 30 min in a lysis buffer (250 mM sucrose, 20 mM HEPES-NaOH, pH 7.5, 10 mM KCl, 1.5 mM MgCl2, 1 mM EDTA, protease inhibitor cocktail and phosphatase inhibitor cocktail). Mouse brains were minced and homogenized in the lysis buffer and then placed on ice for 30 min. Collected cells or tissue were disrupted 20 times by repeated aspiration through a 25-gauge needle, followed by a 30-gauge needle. The homogenates were spun at 800 g for 10 min at 4 °C, and the resulting supernatants were spun at 10,000 g for 20 min at 4 °C. The pellets were washed with lysis buffer and spun at 10,000 g again for 20 min at 4 °C. The final pellets were suspended in lysis buffer containing 1% Triton X-100 and were mitochondrial-rich lysate fractions. The supernatant was centrifuged at 100,000 g, 4 °C, for 1 h, the pellets were suspended in lysis buffer containing 1% Triton X-100 as ER fractions. The final supernatant was cytosolic fractions. The mitochondrial proteins VDAC, the ER protein WFS1 and the cytosolic protein Enolase were used as loading controls for mitochondrial, ER and cytosolic fractions, respectively.
YAC128 (FVB-Tg(YAC128)53Hay/J, JAX stock number: 004938) breeders (FVB/N genetic background) were purchased from Jackson Laboratories. […]
Protein concentrations were determined by Bradford assay. […]

The subject of assay [3] is HdhQ111 / HdhQ7 mouse striatal cells. The assay is described as follows: LDH release (cell death) after serum withdrawal. Format: cell-based. As to the method:
HdhQ7 and Q111 mouse striatal cells were treated with the HV-3 peptide or the control peptide TAT (3 μM, each) in an FBS-free DMEM medium or in DMEM containing 10% serum for 24 h. Medium from the cultured cells was harvested. Proteins from the medium were purified using Amicon Ultra 0.5 ml centrifugal filters (Millipore). HMGB1 release into the medium was then analysed by Western blotting with anti-HMGB1 antibody. In parallel, cell death was determined by measuring LDH release into the culture medium, using LDH-Cytotoxicity Assay Kit II (Roche, USA) by following the manufacturer's instruction.
On the technique in general: Release of lactate dehydrogenase indicates damage to the cell membrane.

On to `CSCC[C@H](NC(=O)[C@@H](NC(=O)[C@H](CC(C)C)NC(=O)[C@@H](NC(=O)[C@H](Cc1c[nH]cn1)NC(=O)CCCCCNC(=O)[C@H](CCCNC(=N)N)NC(=O)[C@H](CCCNC(=N)N)NC(=O)[C@H](CCCNC(=N)N)NC(=O)[C@H](CCC(N)=O)NC(=O)[C@H](CCCNC(=N)N)NC(=O)[C@H](CCCNC(=N)N)NC(=O)[C@H](CCCCN)NC(=O)[C@H](CCCCN)NC(=O)[C@H](CCCNC(=N)N)NC(=O)CNC(=O)[C@@H](N)Cc1ccc(O)cc1)C(C)C)C(C)C)C(=O)N[C@@H](CS)C(=O)N[C@@H](C)C(=O)N[C@H](C(N)=O)[C@@H](C)O` [HV-3], for which, in assay [1], the mitochondrial membrane potential result was “improved MMP”. Moreover, the “Cathepsin B activity” value in assay [2] is given as “reduced by treatment with HV-3”. Besides, in the assay with YAC128 mice, the “VCP translocation to mitochondria in striatum” value is given as “blocked VCP translocation to mitochondria”. Moreover, in assay [3] (HdhQ111 cells, 24 h serum withdrawal, 3 μM), the LDH release result is “reduced the release of high mobility group box 1 (HMGB1) and lactate dehydrogenase (LDH)”. The “cell survival rate, wt” value in assay [3] (wt counterparts of the HD models) is reported as “only minor effects”.
